# From patent publication US10329283B2, “G protein-coupled receptor kinase inhibitors and methods for use of the same” (THE REGENTS OF THE UNIVERSITY OF MICHIGAN, priority 2015, dated 2019)
# Counter-ions that a name gives are not always drawn.
# What was measured:
# GRK2 [1] = molecular target: T1, GRK2 (Homo sapiens, UniProt P25098); experiment: GRK2 kinetic assay for inhibition of GRKs (phosphorimaging); assay type: biochemical; settings: 50 nM GRK, 5 μM ATP, 500 nM bROS or tubulin, 5 min
# T1 sequence (P25098 1-689): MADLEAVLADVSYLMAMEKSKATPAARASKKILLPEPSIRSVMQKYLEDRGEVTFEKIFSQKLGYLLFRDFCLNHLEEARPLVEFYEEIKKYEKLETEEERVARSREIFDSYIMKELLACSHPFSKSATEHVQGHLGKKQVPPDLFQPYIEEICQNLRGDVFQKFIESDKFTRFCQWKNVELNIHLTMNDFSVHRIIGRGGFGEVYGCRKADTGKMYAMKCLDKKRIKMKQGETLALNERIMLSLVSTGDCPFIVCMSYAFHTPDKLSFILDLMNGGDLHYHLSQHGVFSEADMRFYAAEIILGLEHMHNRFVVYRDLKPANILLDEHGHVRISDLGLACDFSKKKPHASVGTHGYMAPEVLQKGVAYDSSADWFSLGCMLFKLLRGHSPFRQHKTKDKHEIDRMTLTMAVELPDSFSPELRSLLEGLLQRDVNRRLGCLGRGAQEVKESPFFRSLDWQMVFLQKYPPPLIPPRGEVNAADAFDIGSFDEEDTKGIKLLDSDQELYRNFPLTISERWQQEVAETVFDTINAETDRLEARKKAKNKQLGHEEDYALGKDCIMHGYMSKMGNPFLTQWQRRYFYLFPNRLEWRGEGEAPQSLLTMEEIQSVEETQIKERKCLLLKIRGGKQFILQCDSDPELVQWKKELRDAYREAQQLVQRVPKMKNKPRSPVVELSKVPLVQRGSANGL
# Protocol: (§1) The low salt concentration and DDM were used to maximize GRK activity and disrupt small molecule aggregates from forming, respectively. […] Data was analyzed and inhibition curves were fit via GraphPad Prism.
# GRK5 = GRK5 (Homo sapiens, UniProt P34947); experiment: GRK5 kinetic assay for inhibition of GRKs (phosphorimaging); assay type: biochemical; settings: 50 nM GRK, 5 μM ATP, 500 nM bROS or tubulin, 5 min
# GRK5, sequence (P34947 whole entry, species assumed): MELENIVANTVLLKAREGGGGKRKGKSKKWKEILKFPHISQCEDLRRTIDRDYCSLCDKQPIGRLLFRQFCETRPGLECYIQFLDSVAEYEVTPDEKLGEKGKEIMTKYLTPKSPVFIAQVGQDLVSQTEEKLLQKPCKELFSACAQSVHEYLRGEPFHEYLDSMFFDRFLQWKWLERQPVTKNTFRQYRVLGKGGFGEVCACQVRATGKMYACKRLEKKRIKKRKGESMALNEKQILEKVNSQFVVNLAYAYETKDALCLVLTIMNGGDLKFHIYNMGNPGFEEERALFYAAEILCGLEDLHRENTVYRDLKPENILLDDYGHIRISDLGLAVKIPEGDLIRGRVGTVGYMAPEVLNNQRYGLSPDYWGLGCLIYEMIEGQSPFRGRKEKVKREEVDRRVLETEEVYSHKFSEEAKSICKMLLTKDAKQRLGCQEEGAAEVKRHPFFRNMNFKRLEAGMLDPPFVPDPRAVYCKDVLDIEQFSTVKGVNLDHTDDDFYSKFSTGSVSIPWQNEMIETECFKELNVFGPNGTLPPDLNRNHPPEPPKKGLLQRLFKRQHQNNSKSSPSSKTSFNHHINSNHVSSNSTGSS
# Protocol: as §1
# GRK1 = molecular target: T2, GRK1 (Bos taurus, UniProt P28327); experiment: GRK1 kinetic assay for inhibition of GRKs (phosphorimaging); assay type: biochemical; settings: 50 nM GRK, 5 μM ATP, 500 nM bROS or tubulin, 5 min
# T2 sequence (P28327 1-535 limits assumed): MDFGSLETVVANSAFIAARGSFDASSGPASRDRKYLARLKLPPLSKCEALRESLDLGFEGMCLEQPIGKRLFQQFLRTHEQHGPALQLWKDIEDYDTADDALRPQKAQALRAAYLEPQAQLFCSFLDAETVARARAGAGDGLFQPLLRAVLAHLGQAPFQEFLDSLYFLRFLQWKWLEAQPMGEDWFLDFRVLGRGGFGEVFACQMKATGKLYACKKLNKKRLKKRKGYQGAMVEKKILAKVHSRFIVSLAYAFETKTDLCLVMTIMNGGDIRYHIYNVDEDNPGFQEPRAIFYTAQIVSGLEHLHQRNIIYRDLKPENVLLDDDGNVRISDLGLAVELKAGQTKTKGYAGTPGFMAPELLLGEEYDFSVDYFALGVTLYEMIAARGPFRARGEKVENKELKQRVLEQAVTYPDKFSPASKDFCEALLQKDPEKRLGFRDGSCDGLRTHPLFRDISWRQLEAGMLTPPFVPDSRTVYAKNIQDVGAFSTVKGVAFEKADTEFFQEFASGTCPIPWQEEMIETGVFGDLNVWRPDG
# Protocol: as §1
# [2] = in words; Thal et al., Mol Pharmacol 2011; cited from earlier work
# GRK2 [3] = molecular target: T1, GRK2; settings: in words; Setyawan et al. 1999, Tesmer et al. 2010; cited from earlier work
Compound,IC50 (GRK2 [1]) [µM],IC50 (GRK5) [µM],IC50 (GRK1) [µM],bioavailability [2],inhibition of GRK2 (GRK2 [3])
"O=C(NCc1c(Cl)cccc1Cl)c1cc([C@@H]2CCNC[C@H]2COc2ccc3c(c2)OCO3)ccc1F [Example E16, 5-((3S,4R)-3-((benzo[d][1,3]dioxol-5-yloxy)methyl)piperidin-4-yl)-N-(2,6-dichlorobenzyl)-2-fluorobenzamide hydrochloride]",1.21,33.6,16.6,–,–
"Fc1ccc([C@@H]2CCNC[C@H]2COc2ccc3[nH]ncc3c2)cc1 [Example E18, 5-(((3S,4R)-4-(4-fluorophenyl)piperidin-3-yl)methoxy)-1H-indazole]",0.07,12.8,65.7,–,–
"Fc1ccc([C@@H]2CCNC[C@H]2COc2cc3cn[nH]c3cc2F)cc1 [Example E30, 6-fluoro-5-(((3S,4R)-4-(4-fluorophenyl)piperidin-3-yl)methoxy)-1H-indazole]",0.14,0.82,3.67,–,–
"COc1cccc(OC)c1CNC(=O)c1cc([C@@H]2CCNC[C@H]2COc2cc3cn[nH]c3cc2F)ccc1F [Example E31, N-(2,6-dimethoxybenzyl)-2-fluoro-5-((3S,4R)-3-(((6-fluoro-1H-indazol-5-yl)oxy)methyl)piperidin-4-yl)benzamide]",0.4,8.12,40.1,–,–
"CN1CC[C@@H](c2ccc(F)cc2)[C@H](COc2ccc3[nH]ncc3c2)C1 [Example E32, 5-(((3S,4R)-4-(4-fluorophenyl)-1-methylpiperidin-3-yl)methoxy)-1H-indazole]",0.29,33,51.8,–,–
CCCn1c(CNc2cccc(C(=O)NCc3c(F)cccc3F)c2)nnc1-c1ccncn1 [Takeda103A],–,–,–,poor bioavailability,–
O=C(N[C@@H]1CNCCC[C@H]1OC(=O)c1cc(O)c(C(=O)c2c(O)cccc2C(=O)O)c(O)c1)c1ccc(O)cc1 [balanol],–,–,–,–,low nanomolar range
